Measurements from patent US4504580A, “Antibiotics produced by fermentation of a novel strain of Streptomyces hygroscopicus” (Bristol-Myers Company, priority 1983, dated 1985).
In brackets after ≈: the same amount, converted by molar mass. Entries after “also recorded” stand apart in the source; their conditions may differ. Like-named read-outs stand apart in the source and are kept apart here.

How the values were obtained:
[1] = tested on: Staphylococcus aureus 209P; assay: MIC by serial two-fold agar dilution, S. aureus 209P; format: cell-based; details: Staphylococcus aureus, 209P; Table 7; Mueller-Hinton agar; read-out: MIC
How it was run: (§1)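 Agar dilution, two-fold series; multipoint (Steer) inoculation; inoculum = 10^4 dilution of overnight culture in Heart Infusion Broth.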

[2] = tested on: Staphylococcus aureus A20239; assay: MIC, aminoglycoside-resistant S. aureus A20239; format: cell-based; details: Staphylococcus aureus, A20239; Table 9; inactivating enzyme APH(3')-I,II; Mueller-Hinton agar; read-out: MIC
Description: (§2) The minimum inhibitory concentrations (MIC) of Bu-2659A, B, C, D and E were determined for a variety of gram-positive and gram-negative bacteria by the serial two-fold agar dilution method using the Steer's multi-inoculating apparatus. The inoculum was standardized as a 10^4 dilution of an overnight culture of the test organisms in Heart Infusion Broth (Difco). […] Reference antibiotics utilized in these tests included commercially available neomycin as well as its components, neomycins B and C [as used herein, the term "neomycin" means the commercial product containing neomycins B and C at an approximate ratio of 7:3], paromomycin [the commercial product containing >90% of paromomycin I and <10% of paromomycin II] and ribostamycin.

[3] = tested on: Neisseria and Haemophilus species; assay: Antibacterial activity (MIC), overall, Neisseria and Haemophilus, Table 8; format: cell-based; details: compared with neomycin
Description: as §2

[4] = tested on: Neisseria meningitidis A21496; assay: MIC by serial two-fold agar dilution, N. meningitidis A21496; format: cell-based; details: Neisseria meningitidis, A21496; Table 8; GC medium; read-out: MIC
Description: as §2

[5] = tested on: Bacillus brevis IFO 12334; assay: MIC, aminoglycoside-resistant B. brevis IFO 12334; format: cell-based; details: Brevibacillus brevis, IFO12334; Table 9; inactivating enzyme ANT (4'); Mueller-Hinton agar; read-out: MIC
Description: as §2

[6] = tested on: Proteus mirabilis A9906; assay: Experimental systemic infection in mice, P. mirabilis A9906; format: in vivo; details: Proteus mirabilis, A9906, 96 h, im, single treatment, 4 days, read-out: PD50
Description: The in vivo activity of Bu-2659A was assessed by experimental systemic infection in mice. The pathogenic bacteria used in the in vivo tests were E. coli Juhl, K. pneumoniae D-11, P. mirabilis A9906, S. aureus Smith and S. pyogenes A20201. Mice were challenged intraperitoneally with approximately 100×LD50 dose of the pathogens in a 5% suspension of hog gastric mucin (American Laboratories, Omaha, Neb.). A single intramuscular treatment with the antibiotic was given immediately after the bacterial challenge. […] Neomycin was comparatively tested as a reference compound. […] In terms of PD50 value Bu-2659A was about one-half as active as neomycin against infections with S. aureus and S. pyogenes.

[7] = tested on: Escherichia coli A20107; assay: MIC, aminoglycoside-resistant E. coli A20107; format: cell-based; details: Escherichia coli, A20107; Table 9; inactivating enzyme APH(3')-II; Mueller-Hinton agar; read-out: MIC
Description: as §2

[8] = tested on: Enterobacter cloacae A20364; assay: MIC, aminoglycoside-resistant E. cloacae A20364; format: cell-based; details: Enterobacter cloacae, A20364; Table 9; inactivating enzyme APH(3')-I; Mueller-Hinton agar; read-out: MIC
Description: as §2

[9] = tested on: Escherichia coli NIHJ; assay: MIC by serial two-fold agar dilution, E. coli NIHJ; format: cell-based; details: Escherichia coli; Table 7; Mueller-Hinton agar; read-out: MIC
How it was run: as §1

[10] = tested on: gram-positive and gram-negative bacteria; assay: In vitro antibacterial spectra (MIC), overall comparison, Table 7; format: cell-based; details: Table 7 organisms
Description: as §2

[11] = tested on: Bacillus subtilis PCI 219; assay: MIC by serial two-fold agar dilution, B. subtilis PCI 219; format: cell-based; details: Bacillus subtilis, PCI219; Table 7; Mueller-Hinton agar; read-out: MIC
How it was run: as §1

[12] = tested on: Staphylococcus aureus D136; assay: MIC by serial two-fold agar dilution, S. aureus D136; format: cell-based; details: Staphylococcus aureus, D136; Table 7; Mueller-Hinton agar; read-out: MIC
How it was run: as §1

[13] = Acute toxicity in mice; format: in vivo; details: for LD50: mouse, in vivo, mice, read-out: LD50
Description: The acute toxicity of Bu-2659A was determined in mice by intravenous, intraperitoneal and subcutaneous routes. Neomycin also was tested for comparison purposes. […] The toxicity of Bu-2659A was approximately 1/3 that of neomycin in terms of LD50 values, thus presenting a potential clinical advantage for Bu-2659A.

[14] = tested on: Mycobacterium phlei; assay: MIC by serial two-fold agar dilution, M. phlei; format: cell-based; details: Mycolicibacterium phlei; Table 8; No. 1001 medium; read-out: MIC
Description: as §2

[15] = tested on: Escherichia coli A20732; assay: MIC, aminoglycoside-resistant E. coli A20732; format: cell-based; details: Escherichia coli, A20732; Table 9; inactivating enzyme ANT(2"); Mueller-Hinton agar; read-out: MIC
Description: as §2

[16] = tested on: Mycobacterium ranae; assay: MIC by serial two-fold agar dilution, M. ranae; format: cell-based; details: Mycobacterium; Table 8; No. 1001 medium; read-out: MIC
Description: as §2

[17] = tested on: Micrococcus luteus PCI 1001; assay: MIC by serial two-fold agar dilution, M. luteus PCI 1001; format: cell-based; details: Micrococcus luteus, PCI1001; Table 7; Mueller-Hinton agar; read-out: MIC
How it was run: as §1

[18] = tested on: Streptococcus pneumoniae Type I; assay: MIC by serial two-fold agar dilution, S. pneumoniae Type I; format: cell-based; details: Streptococcus pneumoniae; Table 8; GC medium; read-out: MIC
Description: as §2

[19] = tested on: Proteus mirabilis A9906; assay: MIC by serial two-fold agar dilution, P. mirabilis A9906; format: cell-based; details: Proteus mirabilis, A9906; Table 7; Mueller-Hinton agar; read-out: MIC
How it was run: as §1

[20] = tested on: Escherichia coli ML 1630; assay: MIC, aminoglycoside-resistant E. coli ML 1630; format: cell-based; details: Escherichia coli, ML1630; Table 9; inactivating enzyme APH(3')-I; Mueller-Hinton agar; read-out: MIC
Description: as §2

[21] = tested on: Staphylococcus aureus Smith; assay: MIC by serial two-fold agar dilution, S. aureus Smith; format: cell-based; details: Staphylococcus aureus; Table 7; Mueller-Hinton agar; read-out: MIC
How it was run: as §1

Which MIC [1] does the source give for `NC[C@@H]1O[C@H](O[C@H]2[C@@H](O)[C@H](O[C@@H]3[C@@H](O)[C@H](O)C[C@H](N)[C@H]3O[C@H]3O[C@H](CN)[C@@H](O)[C@H](O)[C@H]3N)O[C@@H]2CO)[C@H](N)[C@@H](O)[C@@H]1O` [Bu-2659A, 1-deamino-1-hydroxyneomycin B] here?
The MIC was 0.8 µg/mL (≈ 1.3 µM).

What about the MIC [2] of the same compound?
Its MIC is 12.5 µg/mL (≈ 20.3 µM).

What about the “activity against Neisseria and Haemophilus, in words” value [3] of the same compound?
Its value is “more active than neomycin”.

And the MIC [4]?
The MIC was 50 µg/mL (≈ 81.2 µM).

What about the MIC [5] of the same compound?
The MIC was > 100 µg/mL.

And the ED50 [6]?
Its ED50 is 2.5 mg/kg.

What about the MIC [7] of the same compound?
The MIC was 25 µg/mL (≈ 40.6 µM).

What about the MIC [8] of the same compound?
The MIC was 50 µg/mL (≈ 81.2 µM).

What about the MIC [9] of the same compound?
The MIC was 1.6 µg/mL (≈ 2.6 µM).

What about the “in vitro antibacterial activity, in words” value [10] of the same compound?
Its value is “highest activity among the five Bu-2659 components; also recorded: comparable to that of neomycin; also recorded: substantially the same level of antibacterial activity as neomycin B”.

And the MIC [11]?
Its MIC is 0.1 µg/mL (≈ 0.162 µM).

And the MIC [12]?
Its MIC is 0.8 µg/mL (≈ 1.3 µM).

And the “acute toxicity compared with neomycin, in words” value ([13]; all routes of administration)?
Its value is “significantly less toxic than neomycin”.

What about the “toxicity relative to neomycin in terms of LD50 values” ([13]; intravenous, intraperitoneal, subcutaneous) of the same compound?
Its value is “approximately 1/3”.

What about the LD50 ([13]; ip, intraperitoneal) of the same compound?
The LD50 was 460 mg/kg.

What about the LD50 ([13]; sc, subcutaneous) of the same compound?
Its LD50 is 720 mg/kg.

And the LD50 ([13]; intravenous)?
The LD50 was 110 mg/kg.

What about the MIC [14] of the same compound?
The MIC was 0.1 µg/mL (≈ 0.162 µM).

What about the MIC [15] of the same compound?
Its MIC is 0.8 µg/mL (≈ 1.3 µM).

What about the MIC [16] of the same compound?
Its MIC is 0.4 µg/mL (≈ 0.65 µM).

What about the MIC [17] of the same compound?
The MIC was 3.1 µg/mL (≈ 5.04 µM).

What about the MIC [18] of the same compound?
Its MIC is 25 µg/mL (≈ 40.6 µM).

And the MIC [19]?
Its MIC is 0.8 µg/mL (≈ 1.3 µM).

And the MIC [20]?
The MIC was > 100 µg/mL.

What about the MIC [21] of the same compound?
The MIC was 1.6 µg/mL (≈ 2.6 µM).
